From patent US4277477A, “Method of using 1,2-benzisothiazoles” (BASF Aktiengesellschaft, priority 1977, dated 1981)
Structures can show the parent of a compound that is named as a salt.

Tests used:
[1] = tested on: Aconitineinduced arrhythmia in rats; experiment: in vivo; format: in vivo, rats (Sprague Dawley); settings: oral
Description: (§1) The anti-arrhythmic activity of the compounds is determined by orally administering these to rats (Sprague Dawley, weight: 180-240 g) 45 minutes before the start of narcosis (100 mg/kg of thiobutabarbital, administered intraperitoneally).
(§2) The arrhythmogenous substance used was aconitine, administered by intravenous infusion (at the rate of 0.005 mg/kg. minute) 60 minutes after administration of the benzisothiazole derivative.
(§3) for a quantitative evaluation of the linear relation between the logarithm of the dose (mg/kg) of the test substances and the relative increase in the duration of infusion of aconitine (Δ%), the dose which increases the duration of infusion by 50% (ED 50%) was determined.

[2] = in vivo; format: in vivo, rats (Sprague Dawley); settings: rat, in vivo; rats, oral; read-out: Maximum effect, Dose (maximum nontoxic dose)
Description: as §1, §2, §3

[3] = tested on: female Swiss mice; settings: LD 50 mice i.p. / ED 50% rats oral
Description: The acute toxicity was determined on groups of 10 or 20 female Swiss mice weighing 20-26 g, using intraperitoneal administration.

Compound | antiarrhythmic activity, times greater than that of procainamide [1] | MTD [2] | therapeutic range (LD 50/ED 50%), times greater than for procainamide [3] | Antiarrhythmic effect, R.E. (relative effect; procainamide = 1.00) ([1]; relative to procainamide)
c1ccc2c(-c3ccc(C4=NCCCN4)cc3)nsc2c1 [Example 2, 3-[4'-(Tetrahydropyrimidin-2"-yl)-phenyl]-1,2-benzisothiazole hydrochloride] | about 5 times | 215 mg/kg | 4 times | –
CC1CN=C(c2ccc(-c3nsc4ccccc34)cc2)N1 (centres unmarked) [Example 3, 3-[4'-(Methylimidazolin-2"-yl)-phenyl]-1,2-benzisothiazole hydrochloride] | about 5 times | 215 mg/kg | 2.8 times | 4.80
CCN(CC)CCNC(=O)c1ccc(N)cc1 [Procainamide, procainamide, reference compound] | – | 681 mg/kg | – | –
